This note sets out measurements from patent US9345703B2, “Kappa opioid receptor effectors and uses thereof” (University of Kansas, priority 2011, dated 2016).

Holding throughout (format): cell-based
For assay [1], the target named is T1, KOR (Homo sapiens, UniProt P41145). The experiment in a line: DISCOVERX β-arrestin […] assay, agonist mode (KOR DRx). As to conditions: for EC50: agonist; for Emax (%): at highest concentration tested, compared to dynorphin A (Emax=100%). The text has this:
(§1) In this campaign, two assay platforms were employed to evaluate KOR activity and selectivity: the KOR1 DISCOVERX β-Arrestin […] assay and an imaging based β-arrestin translocation assay for confirmatory and selectivity assays. The KOR1 DISCOVERX β-Arrestin […] assay is a commercial platform for direct measurement of GPCR (G protein-coupled receptor) activation by detection of β-Arrestin binding to the KOR. […] In cells that stably express these fusion proteins, ligand stimulation results in the recruitment of β-Arrestin by the GPCR. This interaction encourages the complementation of the two β-galactosidase fragments resulting in the formation of a functional enzyme that converts substrate in the assay medium to a detectable signal.

Assay [2] addresses T1, KOR. The experiment in a line: High content imaging based β-arrestin translocation assay, KOR agonist (KOR HCS). The following applies: n = 2, read-out: Average Potency KOR HCS.
Description: as §1, with “signal. The imaging based high-content β-arrestin translocation assay is based upon the redistribution of β-Arrestin linked to green fluorescent protein (GFP) to the cell surface and detection (Barak, et al. (1997) J. Biol. Chem. 272:27497-27500).” for “signal.”
(§2) Initially, a portion (approximately 290,000 compounds) of the MLSMR compound collection was tested in the KOR1 DISCOVERX β-arrestin primary kappa opioid (KOP) agonist and antagonist screens (PUBCHEM AID 1777 and 1778, respectively) at a single concentration point (10 μM). […] These compounds were concurrently tested in a β-galactosidase counterscreen assay (PUBCHEM AID 1966) to assess the possibility that these compounds might inhibit the reporting enzyme. […] The KOR:DOR:MOR selectivity of the compounds was determined using the analogous β-arrestin translocation assays for the DOR (PUBCHEM AID 2370 and 2357, for agonists and antagonist, respectively) and the MOR (PUBCHEM AID 2352 and 2420, for agonists and antagonists, respectively).

In assay [3] the target is MOR (Homo sapiens, UniProt P35372). The assay is described as follows: High content imaging based β-arrestin translocation assay, MOR agonist (MOR HCS). The following applies: n = 2, read-out: Average Potency MOR HCS.
Description: as §1, with “signal. The imaging based high-content β-arrestin translocation assay is based upon the redistribution of β-Arrestin linked to green fluorescent protein (GFP) to the cell surface and detection (Barak, et al. (1997) J. Biol. Chem. 272:27497-27500).” for “signal.”
as §2

Where [4] appears, read: n = 3, read-out: Average Potency KOR DRx.
The mark [5] stands for this setting: n = 4, Table 11, read-out: Potency, EC50 (DRx).

Each structure is given as a SMILES string.

T1 sequence (P41145 whole entry, the tested form may be a part): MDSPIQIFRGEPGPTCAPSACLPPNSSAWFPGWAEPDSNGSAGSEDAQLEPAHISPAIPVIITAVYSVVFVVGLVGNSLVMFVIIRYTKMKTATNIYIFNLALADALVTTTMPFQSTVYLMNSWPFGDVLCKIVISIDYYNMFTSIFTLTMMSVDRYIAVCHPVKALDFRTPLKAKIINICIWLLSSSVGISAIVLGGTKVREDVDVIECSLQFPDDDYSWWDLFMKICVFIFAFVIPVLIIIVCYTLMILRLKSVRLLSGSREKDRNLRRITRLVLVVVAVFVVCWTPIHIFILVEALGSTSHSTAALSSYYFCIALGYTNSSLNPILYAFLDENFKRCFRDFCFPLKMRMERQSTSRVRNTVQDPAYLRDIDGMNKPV
Sequence of MOR (P35372 whole entry): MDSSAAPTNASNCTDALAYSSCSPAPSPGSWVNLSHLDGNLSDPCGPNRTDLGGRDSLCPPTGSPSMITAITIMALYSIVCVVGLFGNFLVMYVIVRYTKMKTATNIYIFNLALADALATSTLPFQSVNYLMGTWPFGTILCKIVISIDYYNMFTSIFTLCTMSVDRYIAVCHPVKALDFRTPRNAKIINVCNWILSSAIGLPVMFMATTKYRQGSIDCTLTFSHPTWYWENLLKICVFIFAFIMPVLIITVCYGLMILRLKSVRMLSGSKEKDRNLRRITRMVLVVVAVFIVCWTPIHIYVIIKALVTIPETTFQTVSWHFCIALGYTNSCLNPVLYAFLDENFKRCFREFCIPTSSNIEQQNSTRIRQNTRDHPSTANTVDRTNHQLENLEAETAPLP

The Emax is the maximal effect, on the per cent scale that the assay sets. In assay [1], `CC(C)(C)c1ccc(CSc2nnc(-c3ccccn3)n2Cc2ccco2)cc1` [2{6}] came in with a maximal effect (Emax) of roughly 100%. Also, the figures for the EC50 in assay [1] (setting [4]), in assay [2] and in assay [3] were 2.01 ± 0.07 µM, 0.6 µM and greater than 32 µM, respectively.
In the same order, the values of `Clc1ccc(CSc2nnc(-c3ccccn3)n2Cc2cccs2)cc1Cl` [2{9}, 2-(5-((3,4-Dichlorobenzyl)thio)-4-(thiophen-2-ylmethyl)-4H-1,2,4-triazol-3-yl)pyridine] are roughly 135%, 0.73 ± 0.11 µM, 0.43 µM and greater than 32 µM.
On to `Clc1ccc(CSc2nnc(-c3ccccn3)n2Cc2ccco2)c(Cl)c1` [Compound 2{1}], for which the EC50 in assay [1] (setting [4]) is 1.86 ± 0.07 µM; in assay [2] it was 0.93 µM; in assay [3] it was greater than 32 µM. Also, the “Emax (%)” value in assay [1] is reported as roughly 100%.
In the same order, the values of `Clc1ccc(CSc2nnc(-c3ccccn3)n2Cc2cccs2)c(Cl)c1` [Compound 2{2}] are 2.27 ± 0.46 µM, 8.11 µM, greater than 32 µM and roughly 120%.
As for `Brc1ccc(CSc2nnc(-c3ccccn3)n2Cc2ccco2)cc1` [Compound 2{3}], the EC50 is 1.92 ± 0.05 µM in assay [1] (setting [4]), 1.36 µM in assay [2] and greater than 32 µM in assay [3]. In addition, the “Emax (%)” value in assay [1] is listed as roughly 100%.
For `Brc1ccc(CSc2nnc(-c3ccccn3)n2Cc2cccs2)cc1` [Compound 2{4}] the same measures were 1.85 ± 0.11 µM, 1.1 µM, greater than 32 µM and roughly 185%.
The molecule `Clc1cccc(CSc2nnc(-c3ccccn3)n2Cc2ccco2)c1` [Compound 2{7}] showed a maximal response (Emax) in assay [1] of roughly 100%. Besides, the EC50 was 6.76 ± 0.01 µM in assay [1] (setting [4]), 3.63 µM in assay [2] and greater than 32 µM in assay [3].
For the molecule `FC(F)(F)c1cc(CSc2nnc(-c3ccccn3)n2Cc2ccco2)ccc1Cl` [Compound 2{10}], the EC50 in assay [1] (setting [4]) is 0.5 µM; in assay [2], 0.46 µM; in assay [3] it was greater than 32 µM. Moreover, the “Emax (%)” value in assay [1] is listed as roughly 122%.
In the same order, the values of `Cc1ccc(CSc2nnc(-c3ccccn3)n2Cc2cccs2)cc1` [Compound 2{13}] are 3.59 ± 0.3 µM, 2.38 µM, greater than 32 µM and roughly 170%.
For the molecule `FC(F)(F)c1ccc(CSc2nnc(-c3ccccn3)n2Cc2ccco2)cc1` [Compound 2{14}], the EC50 in assay [1] (setting [4]) was 2.77 µM; in assay [2], 1.25 µM; in assay [3], greater than 32 µM. Besides, the “Emax (%)” value in assay [1] is roughly 166%.
In the same order, the values of `FC(F)(F)c1ccc(CSc2nnc(-c3ccccn3)n2Cc2cccs2)cc1` [Compound 2{15}] are 1.23 µM, 0.6 µM, greater than 32 µM and roughly 149%.
In the same order, the values of `Fc1cc(F)cc(CSc2nnc(-c3ccccn3)n2Cc2ccco2)c1` [Compound 2{16}] are 7.89 µM, 21 µM, greater than 32 µM and roughly 104%.
Take `Cc1cc(C)c(CSc2nnc(-c3ccccn3)n2Cc2ccco2)c(C)c1` [Compound 2{18}]: the “Emax (%)” value in assay [1] is recorded as roughly 100%. Besides, the EC50 in assay [3] is greater than 32 µM.
For the molecule `Cc1cc(C)c(CSc2nnc(-c3ccccn3)n2Cc2cccs2)c(C)c1` [Compound 2{19}], the figures for the EC50 in assay [1] (setting [4]), in assay [2] and in assay [3] were greater than 20 µM, 9.5 µM and greater than 32 µM, respectively.
Take `Fc1ccc(CSc2nnc(-c3ccccn3)n2Cc2cccs2)c(F)c1` [Compound 2{24}]: the EC50 in assay [1] (setting [4]) is 6.74 ± 0.97 µM; in assay [2] it was 5.68 µM; in assay [3], greater than 32 µM. The “Emax (%)” value in assay [1] is given as roughly 155%.
`O=[N+]([O-])c1ccc(CSc2nnc(-c3ccccn3)n2Cc2ccco2)cc1` [Compound 2{25}]: the EC50 was 2.48 µM in assay [1] (setting [4]), 2.35 µM in assay [2] and greater than 32 µM in assay [3]. Besides, the “Emax (%)” value in assay [1] is given as roughly 120%.
On to `O=[N+]([O-])c1ccc(CSc2nnc(-c3ccccn3)n2Cc2cccs2)cc1` [Compound 2{26}], for which the figures for the EC50 in assay [1] (setting [4]), in assay [2] and in assay [3] were 1.24 µM, 0.96 µM and greater than 32 µM, respectively. Also, the “Emax (%)” value in assay [1] is reported as roughly 128%.
For `N#Cc1ccc(CSc2nnc(-c3ccccn3)n2Cc2ccco2)cc1` [Compound 2{27}] the same measures were 6.79 µM, 19 µM, greater than 32 µM and roughly 105%.
For `N#Cc1ccc(CSc2nnc(-c3ccccn3)n2Cc2cccs2)cc1` [Compound 2{28}] the same measures were 4.64 µM, 3.5 µM, greater than 32 µM and roughly 142%.
`COC(=O)c1ccc(CSc2nnc(-c3ccccn3)n2Cc2ccco2)cc1` [Compound 2{29}]: the EC50 in assay [1] (setting [4]) is 6.62 µM; in assay [2], 18.5 µM; in assay [3], greater than 32 µM. In addition, the “Emax (%)” value in assay [1] is listed as roughly 125%.
As for `COc1ccc(Cn2c(SCc3ccccc3)nnc2-c2ccccn2)cc1` [Entry 1], the EC50 in assay [1] (setting [5]) is greater than 20 µM.
Same read-out and setting: the result for `COc1ccc(Cn2c(SCc3ccc(Br)cc3)nnc2-c2ccccn2)cc1` [Entry 2] reads greater than 20 µM; that for `COc1ccc(Cn2c(SCc3ccc(Cl)c(Cl)c3)nnc2-c2ccccn2)cc1` [Entry 3], 11.8 µM.
Still for that read-out and setting: the figure for `COc1ccc(Cn2c(SCc3ccc(Cl)c(C(F)(F)F)c3)nnc2-c2ccccn2)cc1` [Entry 4] is greater than 19.7 µM.
As to `c1ccc(CSc2nnc(-c3ccccn3)n2Cc2ccccc2)cc1` [Entry 5], the EC50 in assay [1] (setting [5]) was greater than 20 µM.
On the same count and under the same terms, the result for `Brc1ccc(CSc2nnc(-c3ccccn3)n2Cc2ccccc2)cc1` [Entry 6] reads 4.06 µM; that for `Clc1ccc(CSc2nnc(-c3ccccn3)n2Cc2ccccc2)cc1Cl` [Entry 7], 1.24 µM.
Same read-out and setting: the figure for `FC(F)(F)c1cc(CSc2nnc(-c3ccccn3)n2Cc2ccccc2)ccc1Cl` [Entry 8] is 2.22 µM.
In the case of `c1ccc(CSc2nnc(-c3ccccn3)n2Cc2cccnc2)cc1` [Entry 9], the EC50 in assay [1] (setting [5]) is greater than 20 µM.
Same read-out and setting: the result for `Brc1ccc(CSc2nnc(-c3ccccn3)n2Cc2cccnc2)cc1` [Entry 10] reads 8.51 µM.
Same read-out and setting: the figure for `Clc1ccc(CSc2nnc(-c3ccccn3)n2Cc2cccnc2)cc1Cl` [Entry 11] is 0.76 µM; for `Clc1ccccc1Cn1c(SCc2ccccc2)nnc1-c1ccccn1` [Entry 13] it is greater than 20 µM.
Consider `FC(F)(F)c1cc(CSc2nnc(-c3ccccn3)n2Cc2ccccc2Cl)ccc1Cl` [Entry 16], for which the EC50 in assay [1] (setting [5]) is 4.3 µM.
On the same count and under the same terms, the result for `c1ccc(CSc2nnc(-c3ccncc3)n2Cc2ccco2)cc1` [Entry 17] reads greater than 20 µM; that for `FC(F)(F)c1cc(CSc2nnc(-c3ccncc3)n2Cc2ccco2)ccc1Cl` [Entry 20], greater than 20 µM; that for `Brc1ccc(-c2nnc(SCc3ccccc3)n2Cc2ccco2)cc1` [Entry 21], greater than 20 µM.
Regarding `Brc1ccc(CSc2nnc(-c3ccc(Br)cc3)n2Cc2ccco2)cc1` [Entry 22], the EC50 in assay [1] (setting [5]) stood at 13.5 µM.
Same read-out and setting: the result for `Clc1ccc(CSc2nnc(-c3ccc(Br)cc3)n2Cc2ccco2)cc1Cl` [Entry 23] reads 11 µM; that for `FC(F)(F)c1cc(CSc2nnc(-c3ccc(Br)cc3)n2Cc2ccco2)ccc1Cl` [Entry 24], 13.3 µM.
